Where two headings read alike, the source gives them in different places. Marks after values point to notes of the source that are not given here.

The test system of experiment [1] is Strain Aichi of type A human influenza virus. It counts as in vivo.
In another experiment the test system is mongrel male rats. Put plainly: Hypolipidemic activity: experimental hyperlipidemia (atherogenic load).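 On all read-outs here: serum drawn 18 h after the final dose from rats deprived of food over that interval, groups of 10 animals.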 Conditions: atherogenic diet; for Kcs: cholesterol index.
A further experiment relates to mongrel female rats. The experiment is described as follows: Hepatoprotective activity: subchronic liver lesion (hepatitis) with CCl4. The note with it: rats, CCl4 hepatitis. It counts as in vivo. On the procedure: Hepatoprotective properties of the compounds were studied on a model of subchronic liver lesion (hepatitis) with carbon quadrichloride.
70 mongrel female rats with initial body mass 190-200 g fed a standard vivarium ration, were used in experiment. Animals were divided into 7 groups (10 rats each): • Group 1 - control one; during the first four days of experiment animals were subcutaneously injected 0.2 ml vaseline oil; • Group 2 - during the first four days animals were subcutaneously injected 50% CCl4 solution in vaseline oil at a rate of 0.1 ml per 100 g body mass; • Group 3 - Legalon in a starch gel was administered orally for 8 days at a dose 30 mg/kg against the background of CCl4 administration; […] , resepectively, was administered in a way similar to group III; […] , resepectively, was administered in a way similar to group III.
The test compounds and Legalon were administered to animals 1 hour prior to CCl4 administration. 24 hours after the last administration of the drugs, animals were decapitated.
Activity of blood serum transaminases ALT and AST was assessed using the conventional Frenkel-Rightman method [Laboratory examination methods in the clinic. Ed. by Menshikov V.V. Moscow, Meditsina publishers (1969), 302 pp.].
The published method [Rodionova L.P. Modification of blood serum trigyceride level determination method. Laboratomoye delo (Laboratory Matter) (1980), No 5, pp. 297-299] was used to determine blood serum TG level.
Blood serum LP final product MDA was determined using the published method [Korobeinikova E.N. Modification of lipid peroxydation product determination in reaction with thiobarbituric acid. Laboratomoye delo (Laboratory Matter) (1989), No 7, pp. 8-10]. Concentration of TBA-active products was calculated using regression equation: C = 0.21 + 0.26D, [formula] where C - concentration of TBA-active products (in nM MDA per 1 ml of serum), D - index D535 -D580 (in optic density units).
Total hepatic lipids were extracted using the modified Folch method [Cates M. Technology of Lipidology. Moscow, Mir publishers (1975), pp. 74-76]. Quantative content of lipid fractions was assessed with thin layer chromatography method (TLC) using the system of solvents hexane:diethyl ether:acetic acid at ratio 80:20:2. Zones of individual lipid fractions were determined using 10% alcohol solution of phosphoromolyobdenic acid which following elution were spectrophotometrically analysed at 600 nm.
Hepatic MDA level was determined using the published method [Stalnaya I.D., Garishvili T.G. Malonic dialdehyde determination method using thiobarbituric acid. In: Modem methods in biochemistry. Moscow, Meditsina publishers (1977), pp. 66-69]. MDA quantity was calculated using molar extinction coefficient value of stained trimethynic complex formed by MDA with two TBA molecules: E = 1.56 × 10^5 (cm)^-1 × M^-1 [formula]

In experiment [2] the test system is Lewis pulmonary carcinoma (LLC). The experiment is described as follows: Lewis pulmonary carcinoma growth. It counts as in vivo. Conditions: mice with LLC, day 12; for Growth inhibition percent: compound in drinking water; for Tumor volume (mm^3): compound in drinking water from 24 hours after transplantation.
Method: Experiments were carried out on male mice with initial body mass 18-20 g. Each group included 10 animals. […] Administration of compounds II, III, IX, X, XII, XIV, XV, XVI, XVII, XIX, XXII, XLVII in drinking water was commenced 24 hours following transplantation and continued till the end of experiment. Effect of the compounds on Lewis rat pulmonary carcinoma (LLC) was estimated by day 12 of experiment by change in tumor volume expressed in mm^3.
In another experiment the test system is hydroxyl radical. Put plainly: Hydroxyl radical formation in the Fenton reagent (chemiluminescence). Format: biochemical.
The test system of another experiment is superoxide anion-radical. The experiment is described as follows: Superoxide anion-radical formation in the xantine-xantine oxidase system (chemiluminescence). Format: biochemical.
Setting [3] is: blood, oral last four days, 50 µg/kg.
The mark [4] stands for this setting: blood serum, oral 8 days 30 mg/kg.
The mark [5] stands for this setting: blood serum, oral 8 days, daily dose 30.0 mg/kg.
Setting [6] is: 0.01 mM, control of the series as in the table.
The mark [7] stands for this setting: 0.1 mM, control of the series as in the table.
The mark [8] stands for this setting: 1 mM, control of the series 7839 ± 171, 1120 ± 163, 4974 ± 283 or 1332 ± 172.
The mark [9] stands for this setting: series with Control - 2 (9.1), […].
The mark [10] stands for this setting: blood, oral last four days, 500 µg/kg.
[11] abbreviates: blood serum, 10 µg/kg for 10 days.

Method for hydroxyl radical: Active oxygen forms (AOF) of different nature were generated in the following systems: • A. Hydroxyl radical - in the mixture of FeSO4 with H2O2 (the Fenton reagent) [Halliwell B. Superoxide-dependent formation of hydroxyl radicals in the presence of iron salts. […] Incubation medium comprised 5 mM KH2PO4 (pH 7.4); 5 mM FeSO4; 2 mM luminol. H2O2 at final concentration 5 mM was introduced into a cuvette through a dispencer following background luminescence recording of the reagents' mixture. 5 to 10 ml of the test compounds dissolved in water were at needed concentration introduced into a cuvette.
CL flash recording duration after mixing ingredients, depended on a particular process kinetics. For each system, CL light sum (mV) was determined in the control samples without preparations (I-) and in samples comprising respective concentrations of preparations (I+). To estimate CL inhibition (activation) degree, the I+/I- ratio (in relative units) was found in the studied systems.
When H2O2 was introduced into phosphate buffer comprising iron sulfate, CL flash occured which was caused by formation of predominantly hydroxyl radical in the reaction mixture.
Method for mongrel male rats: Hypolipidemic activity of the compounds of general formula (I) was studied on the model of experimental hyperlipidemia [Arichi H., Kumura H.O. Effects of stibens compounds of roots of polygonum cuspidatium on the lipid metabolism. […] Each group of animals included 10 rats. […] Blood samples were taken for analysis 18 hours after the last administration of the test substances during which period food was taken away from rats.
The following parameters were determined: total cholesterol (total CS); high density lipoprotein cholesterol (HDL-CS); low density lipoprotein cholesterol and very low density lipoprotein cholesterol (LDL-CS and VLDL-CS); triglycerides (TG). Blood serum CS level was determined according to the Ilk method [Biochemical examination in the clinic. […] HDL-CS level was measured in supernatant following heparine-manganese precipitation of LDL+VLDL [Titov V.N., Brener E.D., Khaltaiev N.G., Zadoya A.A., Tvorogova M.G. A method and diagnostic significance of cholesterol level study in α-lipoproteins. […] LDL-CS level determination was carried out by calculation according to the formula presented in the work Friedwald W.T. [Friedwald W.T., Levy K.J., Leus R. Fat transport in lipoproteins: an integrated approach to mechanism and disorders.
To assess the effect of the test compounds on the ratio of atherogenic and antiatherogenic blood serum lipoproteins, cholesterol index (Kcs) was calculated according to the formula presented in the work [Klimov A.N., Nikulcheva N.G. Lipoproteins, dylipoproteinemias and atherosclerosis.
Blood serum TG level was determined using the conventional method [Friedwald W.T., Levy R.I., Fredrickson D.S. Estimation of concentration of low-density lipoprotein cholesterol in plasma, without use of preparative ultracentrifuge.

`CCOC(=O)c1c(CSc2ccccc2)n(C)c2cc(Br)c(O)c(CN(C)C)c12` [Arbidol]: the “MLT, days” value in experiment [1] (series with Control - 2 (9.1), 100 mg/kg, 24 and 2 hours prior and 3 days post infection) is recorded as 13.88*^2 days; in experiment [1] (series with control - 1 (5.76), 100 mg/kg, 24 and 2 hours prior and 3 days post infection), 9.22* days. The “Survival rate in percent” value was 94.7*^2% in experiment [1] (series with Control - 2 (34.5), 100 mg/kg, 24 and 2 hours prior and 3 days post infection); 43.4* percent in experiment [1] (series with control - 1 (16.7), 100 mg/kg, 24 and 2 hours prior and 3 days post infection). In addition, the “Protection degree in percent” value is given as 60.2% in experiment [1] (series with Control - 2, 100 mg/kg, 24 and 2 hours prior and 3 days post infection); 26.7% in experiment [1] (series with control - 1, 100 mg/kg, 24 and 2 hours prior and 3 days post infection).
Consider `CC(=O)NC(CC(=O)NCCc1c[nH]cn1)C(=O)O` (stereo not drawn) [L, N-Acethyl-β -Aspartylhistamine], for which, in the experiment with mongrel male rats (setting [3]), the HDL-CS is 31,0±2,1, the “LDL-CS+ VLDL-CS” value is 63,1±2,4*^A, the “Total CS” value was 94,1±2,1 and the Triglycerides is reported as 141,6±12,6**^A. For the same compound, the Kcs in the experiment with mongrel male rats (oral last four days, 50 µg/kg) was 2,03±0,09***^A.
For `CC(=O)NC(CC(=O)O)C(=O)NCCc1c[nH]cn1` (stereo not drawn) [LI, N-Acethyl- α-Aspartylhistamine], in the experiment on mongrel male rats (setting [3]), the HDL-CS was 39,8±1,6**^A, the “LDL-CS+ VLDL-CS” value is recorded as 59,3±3,5*^A, the “Total CS” value is listed as 99,1±4,5 and the Triglycerides is 132,1±17,4**^A. For the same compound, the Kcs in the experiment with mongrel male rats (oral last four days, 50 µg/kg) is on record as 1,49±0,07***^A.
Turning to `COc1cc(C2Oc3cc([C@H]4Oc5cc(O)cc(O)c5C(=O)[C@@H]4O)ccc3OC2CO)ccc1O` (stereo partly shown) [Legalon, reference compound], in the experiment with mongrel female rats (blood serum, TG/5, oral 8 days 30 mg/kg), the “Cholesterol level, mg/100 ml VLDL-CS” value was found to be 15.7 ± 1.1 p<0.05 mg/100 ml. Moreover, in the experiment on mongrel female rats (blood serum, calculated by formula, oral 8 days 30 mg/kg), the “Cholesterol level, mg/100 ml LDL-CS” value was 20.1 ± 1.1 p<0.01 mg/100 ml. Besides, in the experiment with mongrel female rats (setting [4]), the “Cholesterol level, mg/100 ml HDL-CS” value came to 54.8 ± 2.5 mg/100 ml; the “Cholesterol level, mg/100 ml total-CS” value was 90.9 ± 3.4 mg/100 ml; the “TG level, mg/100ml” value is 78.0 ± 6.2 p<0.05 mg/100ml. In the experiment with mongrel female rats (setting [5]), the “ALT, nM/dl” value is 622 ± 36 nM/dl and the “AST, nM/dl” value is recorded as 531 ± 22 nM/dl. Besides, in the experiment with mongrel female rats (liver, oral 8 days 30 mg/kg), the “Lipid composition (in percent of total lipids) FCS” value is given as 15.0 ± 0.4 p<0.01% of total lipids, the “Lipid composition (in percent of total lipids) Phospholipids” value is 19.7 ± 1.1% of total lipids and the “Lipid composition (in percent of total lipids) Triglycerides” value was 44.1 ± 1.9% of total lipids. In the experiment with mongrel female rats (30.0 mg/kg), the “Hepatic MDA, nM/l” value is given as 4.17 ± 0.31 p<0.001 nM/l and the “Serum MDA, nM/l” value came out at 5.58 ± 0.15 nM/l.
Take `O=C(O)CCCC(=O)NCCc1c[nH]c2ccc(OCc3ccccc3)cc12` [XIV, N-GLUTARYL-O-BENZYLSEROTONIN]: in experiment [2], the Growth inhibition percent was 68% and the “Tumor volume (mm^3)” value was 779 ± 94** mm^3.
Regarding `O=C(O)CCCC(=O)NCCN1CCOCC1` [XIX, N-GLUTARYL-4-(2-AMINOETHYL)MORPHOLINE], the “Chemiluminiscence intensity (mV) + σn-1” value in the experiment with hydroxyl radical (1 µM, control of the series as in the table) was found to be 49089 ± 269 mV; with hydroxyl radical (setting [6]), 3846 ± 184 mV; in the experiment on hydroxyl radical (setting [7]), 3377 ± 222 mV; in the experiment with hydroxyl radical (setting [8]), 626 ± 56 mV. Moreover, the “relative effect: I+/I-” value stood at 0.77 in the experiment with hydroxyl radical (0.01 mM), 0.68 with hydroxyl radical (0.1 mM) and 0.13 in the experiment on hydroxyl radical (1 mM). Besides, in experiment [2], the Growth inhibition percent came out at 28%. The “Tumor volume (mm^3)” value in experiment [2] was found to be 994 ± 173 mm^3.
With `O=C(O)CCCC(=O)NCCc1ccccc1` [XXI], the results for the “relative effect: I+/I-” value in the experiment with hydroxyl radical (0.01 mM), in the experiment on hydroxyl radical (0.1 mM) and with hydroxyl radical (1 mM) were 0.81, 0.66 and 0.05, respectively. Further, the “Chemiluminiscence intensity (mV) + σn-1” value worked out at 4036 ± 186 mV in the experiment on hydroxyl radical (setting [6]); 3265 ± 184 mV with hydroxyl radical (setting [7]); 228 ± 72 mV in the experiment with hydroxyl radical (setting [8]); 6460 ± 166 mV in the experiment on superoxide anion-radical (setting [7]); 4232 ± 146 mV in the experiment with superoxide anion-radical (1 mM, control of the series 5616 ± 173, 5391 ± 195, 7290 ± 128 or 6776 ± 150). Besides, the “relative effect: 1+/I-” value with superoxide anion-radical (0.1 mM) is given as 0.89; with superoxide anion-radical (1 mM), 0.58. Besides, the Growth inhibition percent in experiment [2] was found to be 25%. In experiment [2], the “Tumor volume (mm^3)” value amounted to 1023 ± 207 mm^3.
For `NCCCC(=O)NCCc1c[nH]cn1` [compound XLVII, γ-Aminobutyrylhistamine], in experiment [2], the Growth inhibition percent was 45% and the “Tumor volume (mm^3)” value is recorded as 826 ± 119* mm^3. In experiment [1] (setting [9]), the “MLT” value is given as 10.0 days and the “MLT, days” value is reported as 13.0*^2 days. In addition, the “Survival rate in percent” value in experiment [1] (series with Control - 2 (34.5), 50 µg/kg orally) is given as 83.3*^2%. Also, the “Survival rate in percent” value in experiment [1] (series with Control - 2 (34.5), 500 µg/kg orally) is given as 79.3*^2%. In experiment [1] (series with Control - 2, 50 µg/kg orally), the “Protection degree in percent” value amounted to 48.8%. Also, the “Protection degree in percent” value in experiment [1] (series with Control - 2, 500 µg/kg orally) worked out at 44.8%. For the same compound, in the experiment on mongrel male rats (setting [3]), the HDL-CS is reported as 44,1±1,9**^A, the “LDL-CS+ VLDL-CS” value was 42,4±1,7***^A and the “Total CS” value was 86,5±3,9*^A. In addition, in the experiment on mongrel male rats (setting [10]), the HDL-CS is on record as 40,8±4,8, the “LDL-CS+ VLDL-CS” value is listed as 50,8±3,6**^A, the “Total CS” value is 90,0±2,4 and the Triglycerides is listed as 116,7±10,8*^A. Also, the Kcs with mongrel male rats (oral last four days, 50 µg/kg) is given as 0,96±0,04***^A. Moreover, the Kcs in the experiment with mongrel male rats (oral last four days, 500 µg/kg) was 1,27±0,09.
Turning to `O=C(O)CCCC(=O)NCCc1c[nH]c2ccc(O)cc12` [compound XV, N-GLUTARYLSEROTONIN], in experiment [2], the Growth inhibition percent was determined as 63% and the “Tumor volume (mm^3)” value is listed as 889 ± 67** mm^3.
As to `COc1ccc2[nH]cc(CCNC(=O)CCCC(=O)O)c2c1` [compound XVI, N-GLUTARYL-5-O-METHYLSEROTONIN], in experiment [2], the Growth inhibition percent was determined as 56% and the “Tumor volume (mm^3)” value was 1076 ± 69** mm^3.
As for `O=C(O)CCCC(=O)NCCc1ccccn1` [compound XX, N-GLUTARYL-2-(2-AMINOETHYL)PYRIDINE], the “relative effect: I+/I-” value amounted to 0.85 in the experiment on hydroxyl radical (0.01 mM), 0.81 with hydroxyl radical (0.1 mM) and 0.11 with hydroxyl radical (1 mM). Moreover, the “Chemiluminiscence intensity (mV) + σn-1” value stood at 4205 ± 234 mV with hydroxyl radical (setting [6]), 4018 ± 201 mV in the experiment on hydroxyl radical (setting [7]) and 536 ± 124 mV in the experiment with hydroxyl radical (setting [8]). The same compound yielded a Growth inhibition percent in experiment [2] of 16%. For the same compound, the “Tumor volume (mm^3)” value in experiment [2] is given as 1148 ± 112 mm^3.
As for `O=C(O)c1cccnc1` [nicotinic acid, reference compound], in the experiment with mongrel male rats (setting [11]), the HDL-CS was 42.1 ± 4.2***^1.2, the “LDL-CS+ VLDL-CS” value was 25.7 ± 2.8***^2, the Total-CS came out at 65.7 ± 3.5 and the Triglycerids is recorded as 89.4 ± 6.2***^2. In addition, the Kcs in the experiment on mongrel male rats (10 µg/kg for 10 days) was 0.56***^2.

Source of the values: patent EP2229935A1, “Peptide derivatives or pharmaceutically acceptable salts thereof, method for producing the same, use of said derivatives and pharmaceutical composition” (Nebolsin, Vladimir Evgenievich, priority 1997, dated 1999).
